Target: Replicase polyprotein 1ab (Severe acute respiratory syndrome coronavirus 2, UniProt P0DTD1)
Assay: Inhibition of recombinant SARS-CoV-2 Delta 3CL protease using Dabcyl-KTSAVLQSGFRKME-Edans as substrate preincubated for 30 mins followed by substrate addition and measured for 1 hr by fluorescence based microplate reader analysis

SMILES | IC50
CCCCCCCCCCCCNC(=O)[C@@H](Cc1ccc(O)c(O)c1)OC(=O)/C=C/c1ccc(O)c(O)c1 | 40.8 µM
CCc1cccc(NC(=O)[C@@H](Cc2ccc(O)c(O)c2)OC(=O)/C=C/c2ccc(O)c(O)c2)c1 | 45.7 µM
